Assay results taken from patent US10815230B2, “Casein kinase 1 delta inhibitor” (ELECTROPHORETICS LIMITED, priority 2015, dated 2020).

Columns and labels:
Assay in all cases: KINOMEscan binding assay
Conditions in all cases: read-out: % Ctrl @ 10000 nM
LRRK2 (G2019S) = biological target: T1, LRRK2 (G2019S) (Homo sapiens, UniProt Q5S007, G2019S)
T1 construct: T7 phage fusion (most assays) or DNA label after HEK293 expression; purchased DiscoveRx (KINOMEscan, LeadHunter Discovery services); host or cells: T7 phage in E. coli (BL21-derived) or HEK293

TYRO3 = biological target: T2, TYRO3 (Homo sapiens, UniProt Q06418)
T2 construct: purchased DiscoveRx (KINOMEscan, LeadHunter Discovery services)

CDC2L2 = CDC2L2 (Homo sapiens, UniProt Q9UQ88)
CDC2L2, sequence (Q9UQ88 whole entry): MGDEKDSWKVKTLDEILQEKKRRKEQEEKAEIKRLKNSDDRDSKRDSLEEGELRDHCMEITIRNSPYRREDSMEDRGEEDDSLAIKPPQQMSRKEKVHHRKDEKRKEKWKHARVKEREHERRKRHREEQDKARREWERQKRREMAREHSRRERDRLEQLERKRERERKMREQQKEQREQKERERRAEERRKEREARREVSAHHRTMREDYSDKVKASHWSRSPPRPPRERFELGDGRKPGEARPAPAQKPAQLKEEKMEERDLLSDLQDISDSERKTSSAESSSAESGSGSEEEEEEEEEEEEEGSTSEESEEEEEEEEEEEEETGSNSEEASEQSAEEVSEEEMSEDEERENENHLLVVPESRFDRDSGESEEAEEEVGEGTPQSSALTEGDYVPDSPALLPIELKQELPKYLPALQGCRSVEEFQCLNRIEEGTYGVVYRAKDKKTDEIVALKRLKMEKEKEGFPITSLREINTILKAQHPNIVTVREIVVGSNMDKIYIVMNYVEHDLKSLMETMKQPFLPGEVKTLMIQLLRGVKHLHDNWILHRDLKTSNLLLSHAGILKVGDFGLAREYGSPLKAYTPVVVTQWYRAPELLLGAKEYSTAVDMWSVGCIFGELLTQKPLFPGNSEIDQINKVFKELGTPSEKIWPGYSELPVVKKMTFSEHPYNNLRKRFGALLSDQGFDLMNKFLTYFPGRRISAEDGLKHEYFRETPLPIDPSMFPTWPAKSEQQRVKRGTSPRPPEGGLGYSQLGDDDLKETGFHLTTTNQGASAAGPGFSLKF

MTOR = MTOR (Homo sapiens, UniProt P42345)
NEK10 = NEK10 (Homo sapiens, UniProt Q6ZWH5)
NEK10, sequence (Q6ZWH5 whole entry): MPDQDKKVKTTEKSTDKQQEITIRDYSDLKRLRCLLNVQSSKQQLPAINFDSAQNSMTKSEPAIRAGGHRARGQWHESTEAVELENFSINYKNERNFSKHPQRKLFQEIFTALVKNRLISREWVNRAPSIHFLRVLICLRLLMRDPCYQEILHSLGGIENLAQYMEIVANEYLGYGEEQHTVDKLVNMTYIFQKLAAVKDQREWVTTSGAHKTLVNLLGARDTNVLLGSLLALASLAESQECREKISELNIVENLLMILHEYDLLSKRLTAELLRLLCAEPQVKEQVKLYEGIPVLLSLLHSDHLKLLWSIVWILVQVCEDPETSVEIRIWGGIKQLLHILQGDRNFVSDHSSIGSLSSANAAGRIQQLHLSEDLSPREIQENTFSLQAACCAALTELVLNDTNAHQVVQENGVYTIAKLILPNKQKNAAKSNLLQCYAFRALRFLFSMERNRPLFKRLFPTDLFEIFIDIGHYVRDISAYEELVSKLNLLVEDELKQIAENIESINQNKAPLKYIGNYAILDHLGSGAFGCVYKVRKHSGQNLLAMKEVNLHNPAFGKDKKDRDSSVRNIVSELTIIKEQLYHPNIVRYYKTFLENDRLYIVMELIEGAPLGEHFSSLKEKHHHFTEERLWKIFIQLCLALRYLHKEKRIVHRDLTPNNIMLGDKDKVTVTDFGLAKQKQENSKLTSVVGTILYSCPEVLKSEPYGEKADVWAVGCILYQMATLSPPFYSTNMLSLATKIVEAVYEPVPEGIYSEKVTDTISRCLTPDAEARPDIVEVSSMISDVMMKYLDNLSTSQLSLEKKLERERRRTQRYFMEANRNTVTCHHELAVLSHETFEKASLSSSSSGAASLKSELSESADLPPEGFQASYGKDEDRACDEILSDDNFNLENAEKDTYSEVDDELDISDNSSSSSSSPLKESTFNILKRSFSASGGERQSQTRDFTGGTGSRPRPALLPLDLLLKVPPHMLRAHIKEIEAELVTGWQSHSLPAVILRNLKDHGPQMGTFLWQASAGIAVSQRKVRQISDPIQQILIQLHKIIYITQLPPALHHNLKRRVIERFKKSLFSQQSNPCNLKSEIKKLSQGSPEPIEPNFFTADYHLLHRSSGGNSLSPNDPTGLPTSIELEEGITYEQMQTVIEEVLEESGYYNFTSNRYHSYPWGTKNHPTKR

SGK2 = SGK2 (Homo sapiens, UniProt Q9HBY8)
RET (V804M) = RET (V804M) (Homo sapiens, UniProt P07949, V804M)
CHEK2 = CHEK2 (Homo sapiens, UniProt O96017)
ADCK3 = ADCK3 (Homo sapiens, UniProt Q8NI60)
ADCK3, sequence (Q8NI60 163-647): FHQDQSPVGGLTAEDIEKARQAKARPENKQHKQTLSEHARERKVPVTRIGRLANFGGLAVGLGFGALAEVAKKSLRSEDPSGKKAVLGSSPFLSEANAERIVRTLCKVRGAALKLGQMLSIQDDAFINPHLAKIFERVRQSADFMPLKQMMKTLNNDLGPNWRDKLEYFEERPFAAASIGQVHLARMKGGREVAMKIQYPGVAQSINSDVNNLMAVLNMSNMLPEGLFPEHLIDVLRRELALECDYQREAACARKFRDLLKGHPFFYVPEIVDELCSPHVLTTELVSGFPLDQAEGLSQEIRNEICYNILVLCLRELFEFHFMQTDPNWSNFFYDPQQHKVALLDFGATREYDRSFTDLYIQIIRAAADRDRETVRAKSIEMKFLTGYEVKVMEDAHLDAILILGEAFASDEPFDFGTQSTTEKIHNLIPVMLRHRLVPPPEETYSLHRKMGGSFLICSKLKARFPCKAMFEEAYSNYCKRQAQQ

FLT3 (D835H) = FLT3 (D835H) (Homo sapiens, UniProt P36888, D835H)
ERK4 = ERK4 (Homo sapiens, UniProt P31152)
[1] = biological target: ABL1 (F317I) phosphorylated (Homo sapiens, UniProt P00519, F317I)
ABL1 (F317I) phosphorylated, sequence (P00519 whole entry F317I): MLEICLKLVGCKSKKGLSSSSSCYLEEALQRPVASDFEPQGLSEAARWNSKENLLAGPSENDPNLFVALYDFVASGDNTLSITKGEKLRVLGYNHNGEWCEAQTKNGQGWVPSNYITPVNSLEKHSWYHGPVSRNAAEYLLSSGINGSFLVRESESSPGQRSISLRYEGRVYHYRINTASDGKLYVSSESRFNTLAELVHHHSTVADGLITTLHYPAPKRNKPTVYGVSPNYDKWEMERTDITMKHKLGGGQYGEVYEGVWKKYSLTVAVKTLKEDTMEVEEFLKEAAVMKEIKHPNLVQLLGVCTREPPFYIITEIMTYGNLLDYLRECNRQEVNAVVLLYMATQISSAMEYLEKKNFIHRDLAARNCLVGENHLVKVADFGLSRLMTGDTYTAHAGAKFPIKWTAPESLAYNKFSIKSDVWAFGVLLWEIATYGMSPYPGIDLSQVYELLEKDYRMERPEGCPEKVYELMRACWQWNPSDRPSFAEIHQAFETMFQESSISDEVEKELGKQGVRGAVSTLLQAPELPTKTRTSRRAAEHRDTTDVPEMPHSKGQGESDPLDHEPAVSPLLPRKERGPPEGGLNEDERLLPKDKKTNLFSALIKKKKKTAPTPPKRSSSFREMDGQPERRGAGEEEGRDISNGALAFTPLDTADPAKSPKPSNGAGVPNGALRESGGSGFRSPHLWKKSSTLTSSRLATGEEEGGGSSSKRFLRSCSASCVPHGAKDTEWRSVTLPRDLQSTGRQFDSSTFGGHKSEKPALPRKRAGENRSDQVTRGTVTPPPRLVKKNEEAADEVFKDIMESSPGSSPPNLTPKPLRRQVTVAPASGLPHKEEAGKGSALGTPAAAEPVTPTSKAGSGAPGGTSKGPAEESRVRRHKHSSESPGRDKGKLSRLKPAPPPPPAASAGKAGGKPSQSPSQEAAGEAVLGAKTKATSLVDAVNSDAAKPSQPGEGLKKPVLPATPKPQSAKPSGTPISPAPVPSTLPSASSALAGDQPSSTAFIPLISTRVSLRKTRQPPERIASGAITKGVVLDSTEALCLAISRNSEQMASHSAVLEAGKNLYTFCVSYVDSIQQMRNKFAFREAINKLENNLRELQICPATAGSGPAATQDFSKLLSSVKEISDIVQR

DAPK1 = DAPK1 (Homo sapiens, UniProt P53355)
AAK1 = AAK1 (Homo sapiens, UniProt Q2M2I8)
MAP4K3 = biological target: T3, MAP4K3 (Homo sapiens, UniProt Q8IVH8)
T3 construct: T7 phage fusion (most assays) or DNA label after HEK293 expression; purchased DiscoveRx (KINOMEscan, LeadHunter Discovery services); host or cells: T7 phage in E. coli (BL21-derived) or HEK293

ZAK = biological target: T4, ZAK (Homo sapiens, UniProt Q9NYL2)
T4 construct: purchased DiscoveRx (KINOMEscan, LeadHunter Discovery services)

CAMK1 = CAMK1 (Homo sapiens, UniProt Q14012)
CAMK1, sequence (Q14012 whole entry): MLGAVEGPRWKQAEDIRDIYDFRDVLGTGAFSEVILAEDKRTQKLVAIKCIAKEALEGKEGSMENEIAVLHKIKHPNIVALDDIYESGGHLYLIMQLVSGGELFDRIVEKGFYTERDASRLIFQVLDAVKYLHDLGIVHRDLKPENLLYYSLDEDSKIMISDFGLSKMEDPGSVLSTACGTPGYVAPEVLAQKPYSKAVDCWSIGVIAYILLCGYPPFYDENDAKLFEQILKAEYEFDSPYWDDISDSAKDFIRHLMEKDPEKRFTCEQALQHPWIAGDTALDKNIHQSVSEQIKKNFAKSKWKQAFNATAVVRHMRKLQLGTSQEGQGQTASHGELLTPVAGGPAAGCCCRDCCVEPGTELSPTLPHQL

ACVR2B = ACVR2B (Homo sapiens, UniProt Q13705)
PIK3CA (Q546K) = PIK3CA (Q546K) (Homo sapiens, UniProt P42336, Q546K)
IRAK3 = IRAK3 (Homo sapiens, UniProt Q9Y616)
MLK3 = MLK3 (Homo sapiens, UniProt Q16584)
WNK1 = biological target: T5, WNK1 (Homo sapiens, UniProt Q9H4A3)
T5 construct: purchased DiscoveRx (KINOMEscan, LeadHunter Discovery services)

TNK1 = TNK1 (Homo sapiens, UniProt Q13470)
TIE1 = TIE1 (Homo sapiens, UniProt P35590)
LRRK2 = LRRK2 (Homo sapiens, UniProt Q5S007)
EPHB6 = EPHB6 (Homo sapiens, UniProt O15197)
MET (Y1235D) = MET (Y1235D) (Homo sapiens, UniProt P08581, Y1235D)
HPK1 = HPK1 (Homo sapiens, UniProt Q92918)
BRAF = BRAF (Homo sapiens, UniProt P15056)
CAMK4 = CAMK4 (Homo sapiens, UniProt Q16566)
ACVR2A = ACVR2A (Homo sapiens, UniProt P27037)
ACVR2A, sequence (P27037 20-513): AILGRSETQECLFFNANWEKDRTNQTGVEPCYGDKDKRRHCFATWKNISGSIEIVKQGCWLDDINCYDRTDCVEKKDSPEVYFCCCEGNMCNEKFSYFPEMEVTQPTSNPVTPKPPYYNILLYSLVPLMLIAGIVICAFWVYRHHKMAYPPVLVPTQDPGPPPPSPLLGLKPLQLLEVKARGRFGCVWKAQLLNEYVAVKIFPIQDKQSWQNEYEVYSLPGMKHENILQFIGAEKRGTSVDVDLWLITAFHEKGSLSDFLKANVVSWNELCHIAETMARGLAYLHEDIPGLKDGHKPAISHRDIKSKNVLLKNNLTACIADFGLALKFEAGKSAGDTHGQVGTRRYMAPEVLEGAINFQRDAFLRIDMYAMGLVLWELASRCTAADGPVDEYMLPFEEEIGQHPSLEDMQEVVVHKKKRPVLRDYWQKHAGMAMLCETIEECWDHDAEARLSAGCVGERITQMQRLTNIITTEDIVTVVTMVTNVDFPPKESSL

FRK = FRK (Homo sapiens, UniProt P42685)
MARK4 = MARK4 (Homo sapiens, UniProt Q96L34)
NEK6 = NEK6 (Homo sapiens, UniProt Q9HC98)
NEK6, sequence (Q9HC98 whole entry): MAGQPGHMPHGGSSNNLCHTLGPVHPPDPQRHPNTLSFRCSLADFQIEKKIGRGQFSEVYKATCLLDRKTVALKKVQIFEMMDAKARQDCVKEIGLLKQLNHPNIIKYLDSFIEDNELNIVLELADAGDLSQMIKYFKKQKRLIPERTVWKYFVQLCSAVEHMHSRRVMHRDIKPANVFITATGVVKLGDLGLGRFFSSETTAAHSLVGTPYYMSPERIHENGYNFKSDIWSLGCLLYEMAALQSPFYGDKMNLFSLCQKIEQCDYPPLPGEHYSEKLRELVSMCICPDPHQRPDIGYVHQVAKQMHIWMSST

CDKL5 = CDKL5 (Homo sapiens, UniProt O76039)
PIK3CA (E545K) = PIK3CA (E545K) (Homo sapiens, UniProt P42336, E545K)
CAMKK1 = CAMKK1 (Homo sapiens, UniProt Q8N5S9)
PIK3CA = PIK3CA (Homo sapiens, UniProt P42336)
CDC2L5 = CDC2L5 (Homo sapiens, UniProt Q14004)
SNRK = SNRK (Homo sapiens, UniProt Q9NRH2)
MAP3K4 = biological target: T6, MAP3K4 (Homo sapiens, UniProt Q9Y6R4)
T6 construct: T7 phage fusion (most assays) or DNA label after HEK293 expression; purchased DiscoveRx (KINOMEscan, LeadHunter Discovery services); host or cells: T7 phage in E. coli (BL21-derived) or HEK293

Nc1ncc(-c2nc3ccccc3o2)c(-c2ccncc2)n1 [Comparative Compound 324, 5-(1,3-benzoxazol-2-yl)-4-(pyridine-4-yl)pyrimidin-2-amine]
remaining binding at 10 µM (LRRK2 (G2019S)): 76%
remaining binding at 10 µM (TYRO3): 99%
remaining binding at 10 µM (CDC2L2): 100%
remaining binding at 10 µM (MTOR): 71%
remaining binding at 10 µM (NEK10): 56%
remaining binding at 10 µM (SGK2): 100%
remaining binding at 10 µM (RET (V804M)): 100%
remaining binding at 10 µM (CHEK2): 100%
remaining binding at 10 µM (ADCK3): 88%
remaining binding at 10 µM (FLT3 (D835H)): 68%
remaining binding at 10 µM (ERK4): 90%
remaining binding at 10 µM [1]: 100%
remaining binding at 10 µM (DAPK1): 87%
remaining binding at 10 µM (AAK1): 83%
remaining binding at 10 µM (MAP4K3): 100%
remaining binding at 10 µM (ZAK): 79%
remaining binding at 10 µM (CAMK1): 100%
remaining binding at 10 µM (ACVR2B): 100%
remaining binding at 10 µM (PIK3CA (Q546K)): 90%
remaining binding at 10 µM (IRAK3): 90%
remaining binding at 10 µM (MLK3): 83%
remaining binding at 10 µM (WNK1): 81%
remaining binding at 10 µM (TNK1): 97%
remaining binding at 10 µM (TIE1): 100%
remaining binding at 10 µM (LRRK2): 83%
remaining binding at 10 µM (EPHB6): 65%
remaining binding at 10 µM (MET (Y1235D)): 83%
remaining binding at 10 µM (HPK1): 86%
remaining binding at 10 µM (BRAF): 77%
remaining binding at 10 µM (CAMK4): 89%
remaining binding at 10 µM (ACVR2A): 100%
remaining binding at 10 µM (FRK): 100%
remaining binding at 10 µM (MARK4): 100%
remaining binding at 10 µM (NEK6): 91%
remaining binding at 10 µM (CDKL5): 97%
remaining binding at 10 µM (PIK3CA (E545K)): 82%
remaining binding at 10 µM (CAMKK1): 100%
remaining binding at 10 µM (PIK3CA): 100%
remaining binding at 10 µM (CDC2L5): 93%
remaining binding at 10 µM (SNRK): 65%
remaining binding at 10 µM (MAP3K4): 51%

CNc1c(C(N)=O)c2ccccn2c1C(=O)c1ccc(F)cc1 [Compound A, 2-methyl-amino-3-[(4-fluorophenyl)carbonyl]indolizine-1-carboxamide]
remaining binding at 10 µM (LRRK2 (G2019S)): 86%
remaining binding at 10 µM (TYRO3): 100%
remaining binding at 10 µM (CDC2L2): 91%
remaining binding at 10 µM (MTOR): 96%
remaining binding at 10 µM (NEK10): 100%
remaining binding at 10 µM (SGK2): 100%
remaining binding at 10 µM (RET (V804M)): 100%
remaining binding at 10 µM (CHEK2): 100%
remaining binding at 10 µM (ADCK3): 91%
remaining binding at 10 µM (FLT3 (D835H)): 60%
remaining binding at 10 µM (ERK4): 78%
remaining binding at 10 µM [1]: 88%
remaining binding at 10 µM (DAPK1): 77%
remaining binding at 10 µM (AAK1): 62%
remaining binding at 10 µM (MAP4K3): 100%
remaining binding at 10 µM (ZAK): 92%
remaining binding at 10 µM (CAMK1): 100%
remaining binding at 10 µM (ACVR2B): 100%
remaining binding at 10 µM (PIK3CA (Q546K)): 93%
remaining binding at 10 µM (IRAK3): 60%
remaining binding at 10 µM (MLK3): 83%
remaining binding at 10 µM (WNK1): 69%
remaining binding at 10 µM (TNK1): 99%
remaining binding at 10 µM (TIE1): 95%
remaining binding at 10 µM (LRRK2): 82%
remaining binding at 10 µM (EPHB6): 64%
remaining binding at 10 µM (MET (Y1235D)): 77%
remaining binding at 10 µM (HPK1): 82%
remaining binding at 10 µM (BRAF): 93%
remaining binding at 10 µM (CAMK4): 96%
remaining binding at 10 µM (ACVR2A): 98%
remaining binding at 10 µM (FRK): 58%
remaining binding at 10 µM (MARK4): 100%
remaining binding at 10 µM (NEK6): 76%
remaining binding at 10 µM (CDKL5): 94%
remaining binding at 10 µM (PIK3CA (E545K)): 77%
remaining binding at 10 µM (CAMKK1): 89%
remaining binding at 10 µM (PIK3CA): 89%
remaining binding at 10 µM (CDC2L5): 89%
remaining binding at 10 µM (SNRK): 66%
remaining binding at 10 µM (MAP3K4): 35%
